Source: patent US12679827B2, “Pyrimidine compounds and their pharmaceutical uses” (National Health Research Institutes, priority 2020, dated 2026)

Experiments:
NCI-H82 = test: Proliferation inhibition of various cancer cells (PrestoBlue), NCI-H82; format: cell-based; settings: Homo sapiens, Small cell lung cancer, 72 hours
Description: (§1) The efficacies of compounds 41 and 86 of Formula (I) in inhibiting proliferation of eleven types of cancer cells were determined using PrestoBlue™ Cell Viability Reagent (ThermoFisher Scientific, USA). The eleven types of cancer cells are small cell lung cancer, non-small cell lung cancer, liver cancer, pancreatic cancer, breast cancer, colon cancer, prostate cancer, neuroblastoma, brain cancer, leukemia, and cholangiocarcinoma.
(§2) More specifically, […], i.e., NCI-H82 (ATCC® HTB-175), NCI-H446 (ATCC® HTB-171), NCI-H69 (ATCC® HTB-119), NCI-H146 (ATCC® HTB-173), NCI-H1792 (ATCC® CRL-5895), NCI-H1299 (ATCC® CRL-5803), SNU-398 (ATCC® CRL-2233), PSN-1 (ATCC® CRL-3211), MIA PaCa-2 (ATCC® CRL-1420), MDA-MB-231 (ATCC® HTB-26), LOVO (ATCC® CCL-229), COLO 205 (ATCC® CCL-222), PC-3 (ATCC® CRL-1435), SK-N-BE(2) (ATCC® CRL-2271), D341 Med (ATCC® HTB-187), K562 (ATCC® CCL-243), MOLM-13 (DSMZ-German Collection of Microorganisms and Cell Cultures GmbH, ACC No. 554), and SNU-478 (KCLB 00478), were seeded at a density of 4000-10000 cells per well in 96-well plates for 24 hours. The cancer cells were then treated with each compound at various concentrations (0-10 μM), followed by incubation for another 72 hours. IC50 values were computed based on duplicated 8-point titration.

NCI-H146 = test: Proliferation inhibition of various cancer cells (PrestoBlue), NCI-H146; format: cell-based; settings: Homo sapiens, Small cell lung cancer, 72 hours
Description: as §1, §2

[1] = target: T1, human Aurora A (amino acids 123-401) (Homo sapiens, UniProt O14965); test: Kinase-Glo Luminescent Kinase assay, in vitro inhibition of Aurora A kinase activity; format: biochemical; settings: recombinant GST-tagged Aurora A, 5.0 μM ATP, 37° C., 120 minutes
T1 construct: human Aurora A (amino acids 123-401) was expressed in Sf9 insect cells; GST; made in house; host or cells: Sf9 insect cells
T1 sequence (O14965 123-401): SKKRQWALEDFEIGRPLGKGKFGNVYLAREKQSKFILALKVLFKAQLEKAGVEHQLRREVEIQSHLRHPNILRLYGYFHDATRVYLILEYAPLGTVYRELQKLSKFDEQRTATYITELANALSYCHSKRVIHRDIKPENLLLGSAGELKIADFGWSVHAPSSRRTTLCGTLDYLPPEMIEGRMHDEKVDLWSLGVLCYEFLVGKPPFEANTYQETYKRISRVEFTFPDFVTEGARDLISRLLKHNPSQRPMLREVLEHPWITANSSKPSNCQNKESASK
How it was run: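 GST-tagged Aurora A (aa 123-401) expressed in Sf9 cells, incubated with compound at 100 nM, 5.0 μM ATP and 15 μM tetra(-LRRASLG) peptide in Tris-HCl pH 7.4 with MgCl2, BSA and DTT, 120 min at 37° C. Remaining ATP read by Kinase-Glo Plus luminescence after 20 min at 25° C.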

NCI-H446 = test: Proliferation inhibition of various cancer cells (PrestoBlue), NCI-H446; format: cell-based; settings: Homo sapiens, Small cell lung cancer, 72 hours
Description: as §1, §2

Colo205 = test: Proliferation inhibition of various cancer cells (PrestoBlue), Colo205; format: cell-based; settings: Homo sapiens, COLO 205; Colon cancer; 72 hours
Description: as §1, §2

LOVO = test: Proliferation inhibition of various cancer cells (PrestoBlue), LOVO; format: cell-based; settings: Homo sapiens, Colon cancer, 72 hours
Description: as §1, §2

MIA PaCa-2 = test: Proliferation inhibition of various cancer cells (PrestoBlue), MIA PaCa-2; format: cell-based; settings: Homo sapiens, Pancreatic cancer, 72 hours
Description: as §1, §2

SNU-398 = test: Proliferation inhibition of various cancer cells (PrestoBlue), SNU-398; format: cell-based; settings: Homo sapiens, Liver cancer, 72 hours
Description: as §1, §2

MYCN = test: Western blot, MYCN protein level in SK-N-BE(2) cells; format: cell-based, human; settings: SK-N-BE(2) (neuroblastoma) cells; 50, 200, 500, 1000 nM; 24 hours; FIG. 1
Description: Compounds 41 and 86, both covered by Formula (I), were tested to assess their efficacies in reducing the level of cMYC oncoprotein in a human small-cell-lung-cancer (“SCLC”) cell line NCI-H82 (ATCC® HTB-175, USA) and the level of MYCN oncoprotein in a human neuroblastoma cell line SK-N-BE(2) (ATCC® CRL-2271, USA) as follows.
NCI-H82 was maintained in RPMI1640 medium (ThermoFisher Scientific, USA) supplemented with 10% fetal bovine serum (FBS, HyClone, USA) and antibiotics. SK-N-BE(2) was maintained in Minimum Essential Medium (MEM, ThermoFisher Scientific, USA) supplemented with 10% FBS (HyClone, USA) and antibiotics. The cancer cells from each cell line were treated with each of compounds 41 and 86 at 4 different compound concentrations, i.e., 50 nM, 200 nM, 500 nM, and 1000 nM. After 24 hours, each cancer cell solution was washed with 1× phosphate buffered saline (PBS), lysed in 1× Laemmli protein sample buffer, and boiled at 100° C. for 10 minutes. Each lysate was separated by SDS-PAGE, transferred to polyvinylidene fluoride (PVDF, Millipore, USA) membrane, and blotted with antibodies. Primary antibodies used for Western blotting were cMYC (Cell Signaling, Cat No. 5605S), MYCN (Cell Signaling, 9405S), PARP-1 (Abcam, ab32378), and GAPDH (Genetex, GTX100118). […]

PSN-1 = test: Proliferation inhibition of various cancer cells (PrestoBlue), PSN-1; format: cell-based; settings: Homo sapiens, PSN1; Pancreatic cancer; 72 hours
Description: as §1, §2

SK-N-BE(2) = test: Proliferation inhibition of various cancer cells (PrestoBlue), SK-N-BE(2); format: cell-based; settings: Homo sapiens, SKNBE2; Neuroblastoma; 72 hours
Description: as §1, §2

SMILES | IC50 (NCI-H82) | IC50 (NCI-H146) | IC50 [1] | IC50 (NCI-H446) | IC50 (Colo205) | IC50 (LOVO) | IC50 (MIA PaCa-2) | IC50 (SNU-398) | protein level of MYCN (MYCN) | IC50 (PSN-1) | IC50 (SK-N-BE(2))
CCN1CCN(c2cc(Nc3cc(C)[nH]n3)nc(N[C@H]3CCN(C(=O)c4ccc(Cl)cc4F)C3)n2)CC1 [Compound 41] | < 200 nM | < 2000 nM | < 100 nM | < 200 nM | < 1000 nM | < 10000 nM | < 1000 nM | < 200 nM | greatly reduced | < 2000 nM | < 200 nM
CCN1CCN(c2cc(Nc3cc(C)[nH]n3)nc(NC3CCN(C(=O)c4cccc(Cl)c4F)CC3)n2)CC1 [Compound 86] | < 300 nM | < 10000 nM | < 100 nM | < 200 nM | < 1000 nM | < 10000 nM | < 1000 nM | < 200 nM | greatly reduced | < 2000 nM | < 200 nM
